Test results: ChEMBL document CHEMBL1955741, “Identification of fused bicyclic heterocycles as potent and selective 5-HT(2A) receptor antagonists for the treatment of insomnia” (Bioorg Med Chem Lett, 2012)
Values belong to the compound of their own block, whether it stands above or below them. The source made the active and inactive calls. The calls are words filed in the database; no cut-off is given here.

Experiments:
[1] = target: T1, 5-hydroxytryptamine receptor 2C (Homo sapiens, UniProt P28335)
T1 sequence (P28335 whole entry): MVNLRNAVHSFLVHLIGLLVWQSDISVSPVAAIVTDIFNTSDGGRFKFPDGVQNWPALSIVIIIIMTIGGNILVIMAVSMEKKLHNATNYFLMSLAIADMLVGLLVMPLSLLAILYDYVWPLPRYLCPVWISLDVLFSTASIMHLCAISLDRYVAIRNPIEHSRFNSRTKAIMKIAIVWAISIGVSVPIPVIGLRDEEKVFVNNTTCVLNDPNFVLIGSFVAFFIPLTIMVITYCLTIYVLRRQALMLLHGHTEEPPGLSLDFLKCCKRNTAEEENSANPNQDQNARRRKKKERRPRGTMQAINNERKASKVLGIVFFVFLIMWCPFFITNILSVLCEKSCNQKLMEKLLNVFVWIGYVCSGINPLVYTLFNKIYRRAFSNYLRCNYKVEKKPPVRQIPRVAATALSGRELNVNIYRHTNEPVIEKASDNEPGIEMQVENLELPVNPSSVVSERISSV

[2] = target: 5-hydroxytryptamine receptor 2A (Homo sapiens, UniProt P28223)
5-hydroxytryptamine receptor 2A, sequence (P28223 whole entry): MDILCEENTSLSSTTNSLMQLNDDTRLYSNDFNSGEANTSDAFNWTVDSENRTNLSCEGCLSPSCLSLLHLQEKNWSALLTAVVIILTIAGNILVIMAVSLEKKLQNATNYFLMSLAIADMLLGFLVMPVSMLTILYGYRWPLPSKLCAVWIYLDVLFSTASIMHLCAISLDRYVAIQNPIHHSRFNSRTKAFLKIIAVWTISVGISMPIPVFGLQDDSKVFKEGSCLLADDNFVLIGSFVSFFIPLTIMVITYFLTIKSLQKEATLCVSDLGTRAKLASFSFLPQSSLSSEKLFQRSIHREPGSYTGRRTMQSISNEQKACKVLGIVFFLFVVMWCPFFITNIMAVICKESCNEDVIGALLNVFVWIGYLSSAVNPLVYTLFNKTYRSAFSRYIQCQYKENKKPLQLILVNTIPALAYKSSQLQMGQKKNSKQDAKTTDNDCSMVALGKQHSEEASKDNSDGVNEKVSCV
Description: Displacement of [125I]-DOI from recombinant human 5HT2A receptor

[3] = target: D(3) dopamine receptor (Homo sapiens) (UniProt P35462); assay: Binding affinity to dopamine receptor D3 at 10 uM
D(3) dopamine receptor (Homo sapiens), sequence (P35462 whole entry): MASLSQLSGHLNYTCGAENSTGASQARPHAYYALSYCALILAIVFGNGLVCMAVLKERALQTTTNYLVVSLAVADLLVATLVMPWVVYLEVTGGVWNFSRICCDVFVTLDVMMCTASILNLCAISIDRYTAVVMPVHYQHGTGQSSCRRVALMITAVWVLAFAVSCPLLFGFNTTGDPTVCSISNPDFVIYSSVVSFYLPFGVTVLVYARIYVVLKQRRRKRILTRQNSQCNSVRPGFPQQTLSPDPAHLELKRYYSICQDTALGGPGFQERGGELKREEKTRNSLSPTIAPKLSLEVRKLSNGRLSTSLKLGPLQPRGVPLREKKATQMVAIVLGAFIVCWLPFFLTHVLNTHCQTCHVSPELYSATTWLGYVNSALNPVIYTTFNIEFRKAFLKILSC

[4] = Cmax in rat at 3 mg/kg, po; type: ADME, organism-based; design: dose 3 mg/kg, route oral; details: in vivo
Cytochrome P450 3A4 = Cytochrome P450 3A4 (Homo sapiens, UniProt P08684); assay: Inhibition of CYP3A4 in human liver microsomes; type: ADME, Microsome
Cytochrome P450 3A4, sequence (P08684 whole entry): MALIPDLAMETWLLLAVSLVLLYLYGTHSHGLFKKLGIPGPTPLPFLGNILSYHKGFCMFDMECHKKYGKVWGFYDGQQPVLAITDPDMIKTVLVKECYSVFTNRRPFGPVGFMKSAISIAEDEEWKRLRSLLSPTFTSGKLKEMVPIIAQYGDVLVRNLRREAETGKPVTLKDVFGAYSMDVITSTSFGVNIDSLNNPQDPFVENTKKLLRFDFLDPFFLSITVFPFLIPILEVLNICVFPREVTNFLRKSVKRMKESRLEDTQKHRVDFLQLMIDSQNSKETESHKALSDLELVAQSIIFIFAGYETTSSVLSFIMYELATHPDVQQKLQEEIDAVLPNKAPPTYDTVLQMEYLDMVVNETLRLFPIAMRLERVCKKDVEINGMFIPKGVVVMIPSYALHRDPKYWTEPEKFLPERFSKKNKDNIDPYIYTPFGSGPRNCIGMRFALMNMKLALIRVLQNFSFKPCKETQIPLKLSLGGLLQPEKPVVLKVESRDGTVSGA

Rattus norvegicus [5] = assay: Antiinsomnia activity in po dosed rat assessed as increase in non-rapid eye movement bout duration after 5 hrs; type: functional, organism-based
[6] = Ratio of drug level in brain to plasma in rat at 0.3 mg/kg; type: ADME, organism-based; design: dose 0.3 mg/kg; details: read-out: BPR
Cytochrome P450 2C9 = Cytochrome P450 2C9 (Homo sapiens, UniProt P11712); assay: Inhibition of CYP2C9 in human liver microsomes; type: ADME, Microsome
Cytochrome P450 2C9, sequence (P11712 whole entry): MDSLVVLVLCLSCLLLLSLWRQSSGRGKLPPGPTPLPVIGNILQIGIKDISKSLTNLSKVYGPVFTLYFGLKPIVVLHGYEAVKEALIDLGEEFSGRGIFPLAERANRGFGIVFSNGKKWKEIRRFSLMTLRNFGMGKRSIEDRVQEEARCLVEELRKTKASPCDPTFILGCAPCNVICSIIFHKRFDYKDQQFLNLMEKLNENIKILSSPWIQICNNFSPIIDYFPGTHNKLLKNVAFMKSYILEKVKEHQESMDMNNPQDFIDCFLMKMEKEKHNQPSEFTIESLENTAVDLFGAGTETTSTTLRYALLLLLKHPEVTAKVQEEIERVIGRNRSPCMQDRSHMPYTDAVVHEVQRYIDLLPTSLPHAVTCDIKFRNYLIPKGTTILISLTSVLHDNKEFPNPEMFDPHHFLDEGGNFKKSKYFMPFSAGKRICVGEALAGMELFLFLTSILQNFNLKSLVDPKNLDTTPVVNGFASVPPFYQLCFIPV

[7] = Half life in rat liver microsomes; type: ADME, Microsome
Canis familiaris [8] = assay: Toxicity in telemetered dog model assessed as change in hemodynamic measures upto 30 mg/kg; type: organism-based, Canis lupus familiaris; design: dose 30 mg/kg; details: in vivo
Rattus norvegicus [9] = assay: Antiinsomnia activity in rat assessed as increase in delta power at 0.1 mg/kg, po after 3 to 4 hrs; type: functional, organism-based; design: dose 0.1 mg/kg
Rattus norvegicus [10] = assay: Total clearance in iv dosed rat; type: ADME, organism-based; details: in vivo
Rattus norvegicus [11] = assay: Oral bioavailability in rat; type: ADME, organism-based; details: in vivo
[12] = Drug uptake in rat brain at 0.3 mg/kg after 0.75 hrs; type: ADME, organism-based; design: dose 0.3 mg/kg; details: read-out: Drug uptake
Rattus norvegicus [13] = assay: Antiinsomnia activity in po dosed rat assessed as increase in sleep consolidation after 5 hrs; type: functional, organism-based
Rattus norvegicus [14] = assay: Inhibition of DOI-induced hypolocomotion in rat drug coadministered with DOI 10 mins prior testing; type: functional
[15] = Plasma concentration in rat at 0.3 mg/kg after 0.75 hrs; type: ADME, organism-based; design: dose 0.3 mg/kg
[16] = target: T2, Alpha-1A adrenergic receptor (Homo sapiens) (UniProt P35348); assay: Binding affinity to adrenergic alpha 1 receptor at 10 uM
T2 sequence (whole entry): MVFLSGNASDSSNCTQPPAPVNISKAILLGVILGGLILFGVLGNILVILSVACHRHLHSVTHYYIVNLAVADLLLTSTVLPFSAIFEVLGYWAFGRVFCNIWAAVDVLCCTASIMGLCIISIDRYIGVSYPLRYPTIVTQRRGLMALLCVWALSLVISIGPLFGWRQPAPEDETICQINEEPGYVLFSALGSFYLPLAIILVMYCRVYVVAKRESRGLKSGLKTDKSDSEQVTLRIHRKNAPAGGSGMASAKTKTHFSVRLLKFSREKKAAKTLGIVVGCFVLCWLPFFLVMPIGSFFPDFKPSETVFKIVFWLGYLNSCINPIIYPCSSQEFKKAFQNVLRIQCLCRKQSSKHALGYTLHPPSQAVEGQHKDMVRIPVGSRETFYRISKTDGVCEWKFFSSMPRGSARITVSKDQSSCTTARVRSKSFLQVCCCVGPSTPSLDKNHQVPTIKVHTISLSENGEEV

Cytochrome P450 2C19 = Cytochrome P450 2C19 (Homo sapiens, UniProt P33261); assay: Inhibition of […] in human liver microsomes; type: ADME, Microsome
Cytochrome P450 2C19, sequence (P33261 whole entry): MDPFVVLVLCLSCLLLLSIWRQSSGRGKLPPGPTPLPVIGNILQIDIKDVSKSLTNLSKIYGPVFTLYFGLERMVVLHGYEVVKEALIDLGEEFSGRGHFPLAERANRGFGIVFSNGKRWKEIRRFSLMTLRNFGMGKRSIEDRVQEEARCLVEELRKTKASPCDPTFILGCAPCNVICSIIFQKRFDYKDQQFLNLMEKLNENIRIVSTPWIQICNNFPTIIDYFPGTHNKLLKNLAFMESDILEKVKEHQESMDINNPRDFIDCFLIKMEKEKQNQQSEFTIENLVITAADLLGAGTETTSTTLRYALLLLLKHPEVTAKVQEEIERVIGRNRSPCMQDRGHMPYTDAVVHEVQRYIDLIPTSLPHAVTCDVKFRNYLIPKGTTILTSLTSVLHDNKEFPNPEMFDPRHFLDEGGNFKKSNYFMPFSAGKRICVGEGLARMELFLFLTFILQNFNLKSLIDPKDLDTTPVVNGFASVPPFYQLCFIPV

[17] = target: T3, Alpha-2A adrenergic receptor (Homo sapiens) (UniProt P08913); assay: Binding affinity to adrenergic alpha 2 receptor at 10 uM
T3 sequence (whole entry): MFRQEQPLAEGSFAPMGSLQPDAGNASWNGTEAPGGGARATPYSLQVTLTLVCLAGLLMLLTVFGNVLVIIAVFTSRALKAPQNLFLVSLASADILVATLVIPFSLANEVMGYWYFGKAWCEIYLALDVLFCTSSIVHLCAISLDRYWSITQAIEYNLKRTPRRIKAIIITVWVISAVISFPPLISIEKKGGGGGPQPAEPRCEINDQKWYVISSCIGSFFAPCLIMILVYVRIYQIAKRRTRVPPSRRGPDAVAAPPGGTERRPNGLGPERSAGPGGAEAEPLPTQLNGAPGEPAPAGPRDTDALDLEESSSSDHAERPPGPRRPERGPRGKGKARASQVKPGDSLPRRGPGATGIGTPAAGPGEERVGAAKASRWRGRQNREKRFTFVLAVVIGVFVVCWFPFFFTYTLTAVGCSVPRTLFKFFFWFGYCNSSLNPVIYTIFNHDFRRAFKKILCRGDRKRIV

Rattus norvegicus [18] = assay: AUClast in rat at 3 mg/kg, po; type: ADME, organism-based, Plasma; design: time 0 - last, dose 3 mg/kg, route oral; details: in vivo
Rattus norvegicus [19] = assay: Antiinsomnia activity in po dosed rat assessed as decrease in non-rapid eye movement bout number after 5 hrs; type: functional, organism-based
[20] = target: D(1B) dopamine receptor (Homo sapiens) (UniProt P21918); assay: Binding affinity to dopamine receptor D5 at 10 uM
D(1B) dopamine receptor (Homo sapiens), sequence (P21918 whole entry): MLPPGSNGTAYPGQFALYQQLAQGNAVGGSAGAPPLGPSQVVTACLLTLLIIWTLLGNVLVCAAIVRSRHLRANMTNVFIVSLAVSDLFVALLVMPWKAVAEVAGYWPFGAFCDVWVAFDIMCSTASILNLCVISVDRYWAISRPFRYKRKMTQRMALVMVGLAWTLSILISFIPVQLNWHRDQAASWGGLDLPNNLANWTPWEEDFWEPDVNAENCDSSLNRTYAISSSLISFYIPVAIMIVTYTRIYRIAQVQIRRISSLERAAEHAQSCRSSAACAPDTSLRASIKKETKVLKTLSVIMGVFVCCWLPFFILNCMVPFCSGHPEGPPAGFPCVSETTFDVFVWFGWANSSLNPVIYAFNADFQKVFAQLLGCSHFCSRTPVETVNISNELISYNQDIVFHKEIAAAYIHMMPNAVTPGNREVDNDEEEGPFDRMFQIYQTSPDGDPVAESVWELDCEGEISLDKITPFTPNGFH

Canis familiaris [21] = assay: Toxicity in telemetered dog model assessed as change in ECG measures upto 30 mg/kg; type: organism-based, Canis lupus familiaris; design: dose 30 mg/kg; details: in vivo
[22] = target: D(1A) dopamine receptor (Homo sapiens) (UniProt P21728); assay: Binding affinity to dopamine receptor D1 at 10 uM
D(1A) dopamine receptor (Homo sapiens), sequence (P21728 whole entry): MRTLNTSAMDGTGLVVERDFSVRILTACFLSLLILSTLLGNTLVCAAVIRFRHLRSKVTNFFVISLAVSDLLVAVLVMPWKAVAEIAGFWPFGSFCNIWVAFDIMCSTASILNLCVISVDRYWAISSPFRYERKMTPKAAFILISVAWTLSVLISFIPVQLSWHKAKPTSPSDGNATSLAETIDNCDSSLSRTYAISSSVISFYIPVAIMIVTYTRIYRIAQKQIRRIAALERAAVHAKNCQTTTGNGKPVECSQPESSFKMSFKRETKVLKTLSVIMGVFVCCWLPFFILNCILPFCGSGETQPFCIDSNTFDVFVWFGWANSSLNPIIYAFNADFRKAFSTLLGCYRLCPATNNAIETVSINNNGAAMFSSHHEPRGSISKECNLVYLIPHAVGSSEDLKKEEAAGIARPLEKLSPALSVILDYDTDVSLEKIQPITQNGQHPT

Cytochrome P450 1A2 = target: T4, Cytochrome P450 1A2 (Homo sapiens, UniProt P05177); assay: Inhibition of CYP1A2 in human liver microsomes; type: ADME, Microsome
T4 sequence (P05177 whole entry): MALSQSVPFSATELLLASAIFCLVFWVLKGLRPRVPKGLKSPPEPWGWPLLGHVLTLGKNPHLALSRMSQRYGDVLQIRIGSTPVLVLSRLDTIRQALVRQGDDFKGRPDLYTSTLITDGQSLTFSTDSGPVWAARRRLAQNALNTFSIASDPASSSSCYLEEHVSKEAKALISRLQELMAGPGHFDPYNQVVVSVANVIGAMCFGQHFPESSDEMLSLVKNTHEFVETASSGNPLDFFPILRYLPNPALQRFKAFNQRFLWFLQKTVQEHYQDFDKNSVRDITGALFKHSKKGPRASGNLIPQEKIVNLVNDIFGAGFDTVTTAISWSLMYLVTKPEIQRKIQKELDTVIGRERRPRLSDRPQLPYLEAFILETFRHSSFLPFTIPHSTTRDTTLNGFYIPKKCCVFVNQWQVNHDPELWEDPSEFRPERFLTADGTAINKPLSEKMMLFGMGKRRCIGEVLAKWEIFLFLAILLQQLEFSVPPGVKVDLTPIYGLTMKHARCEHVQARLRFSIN

[23] = Half life in po dosed rat; type: ADME, organism-based; details: in vivo
Cytochrome P450 2D6 = Cytochrome P450 2D6 (Homo sapiens, UniProt P10635); assay: Inhibition of CYP2D6 in human liver microsomes; type: ADME, Microsome
Cytochrome P450 2D6, sequence (P10635 whole entry): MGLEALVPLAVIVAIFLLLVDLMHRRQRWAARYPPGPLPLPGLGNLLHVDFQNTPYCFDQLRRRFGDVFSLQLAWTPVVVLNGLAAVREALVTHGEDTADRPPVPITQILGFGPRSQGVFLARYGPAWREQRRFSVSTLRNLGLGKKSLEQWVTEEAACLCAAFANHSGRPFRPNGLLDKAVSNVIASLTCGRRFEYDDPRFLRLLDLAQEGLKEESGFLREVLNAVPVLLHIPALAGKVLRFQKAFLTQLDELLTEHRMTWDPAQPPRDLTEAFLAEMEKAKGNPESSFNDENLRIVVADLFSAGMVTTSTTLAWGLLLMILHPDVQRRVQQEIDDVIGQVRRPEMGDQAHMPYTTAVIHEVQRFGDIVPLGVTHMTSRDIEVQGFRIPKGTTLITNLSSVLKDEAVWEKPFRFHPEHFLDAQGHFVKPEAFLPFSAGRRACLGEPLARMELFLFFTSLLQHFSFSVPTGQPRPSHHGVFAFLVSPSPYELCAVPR

Rattus norvegicus [24] = assay: Antiinsomnia activity in rat assessed as increase in delta power at 0.1 mg/kg, po after 1 hr; type: functional, organism-based; design: dose 0.1 mg/kg
Rattus norvegicus [25] = assay: Volume of distribution at steady state in […] rat; type: ADME, organism-based; details: in vivo
[26] = target: T5, D(4) dopamine receptor (Homo sapiens) (UniProt P21917); assay: Binding affinity to dopamine receptor D4 at 10 uM
T5 sequence (whole entry): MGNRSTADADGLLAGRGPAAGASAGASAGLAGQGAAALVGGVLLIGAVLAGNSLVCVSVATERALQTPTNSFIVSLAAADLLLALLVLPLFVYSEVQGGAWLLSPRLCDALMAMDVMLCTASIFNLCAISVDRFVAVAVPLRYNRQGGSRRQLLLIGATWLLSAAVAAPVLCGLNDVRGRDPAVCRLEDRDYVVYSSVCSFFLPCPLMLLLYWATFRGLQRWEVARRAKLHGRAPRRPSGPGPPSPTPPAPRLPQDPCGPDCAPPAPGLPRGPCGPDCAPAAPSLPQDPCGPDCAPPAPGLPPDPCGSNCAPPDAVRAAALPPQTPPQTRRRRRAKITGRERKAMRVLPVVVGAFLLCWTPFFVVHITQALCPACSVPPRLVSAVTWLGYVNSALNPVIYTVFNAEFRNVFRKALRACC

[27] = target: D(2) dopamine receptor (Homo sapiens) (UniProt P14416); assay: Binding affinity to dopamine receptor D2 at 10 uM
D(2) dopamine receptor (Homo sapiens), sequence (P14416 whole entry): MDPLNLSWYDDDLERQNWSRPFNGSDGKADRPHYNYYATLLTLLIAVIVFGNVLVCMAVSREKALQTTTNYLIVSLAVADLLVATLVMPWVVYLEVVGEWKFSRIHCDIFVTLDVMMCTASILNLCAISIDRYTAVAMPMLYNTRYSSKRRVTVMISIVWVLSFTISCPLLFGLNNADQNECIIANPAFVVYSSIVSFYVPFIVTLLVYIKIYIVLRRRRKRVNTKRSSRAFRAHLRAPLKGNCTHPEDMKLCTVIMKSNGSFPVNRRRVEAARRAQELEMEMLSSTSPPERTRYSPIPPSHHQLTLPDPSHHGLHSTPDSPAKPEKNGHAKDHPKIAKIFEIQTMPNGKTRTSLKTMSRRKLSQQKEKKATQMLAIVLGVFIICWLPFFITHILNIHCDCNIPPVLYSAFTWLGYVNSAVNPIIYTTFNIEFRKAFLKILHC

[28] = Plasma protein binding in human; type: ADME, cell-free; details: read-out: PPB (converted)

Compound: O=C(c1nn2ccccc2c1Cl)N1CCN(CCc2ccc(F)cc2F)CC1
Ki [1]: 394 nM
Ki [2]: 0.6 nM

Compound: O=C(c1cccc2ccnn12)N1CCN(CCc2ccc(F)cc2F)CC1
Ki [1]: 194 nM
Ki [2]: 0.4 nM

Compound: O=C(c1cccn2cc(Br)nc12)N1CCN(CCc2ccc(F)cc2F)CC1
Ki [1]: 682 nM
Ki [2]: 1.7 nM

Compound: O=C(c1cnn2cc(Cl)ccc12)N1CCN(CCc2ccc(F)cc2F)CC1
Ki [1]: 575 nM
Ki [2]: 5.9 nM

Compound: Nc1cccc2nc(C(=O)N3CCN(CCc4ccc(F)cc4F)CC3)cn12
Ki [1]: 152 nM
Ki [2]: 1.4 nM

Compound: O=C(c1cccn2cc(Cl)nc12)N1CCN(CCc2ccc(F)cc2F)CC1
Ki [1]: 391 nM
Ki [2]: 1.5 nM

Compound: O=C(c1cnn2ccccc12)N1CCN(CCc2ccc(F)cc2F)CC1
Ki [1]: 246 nM
Ki [2]: 1.8 nM

Now from value to compound, other results behind:

Ki [1]: 496 nM
Ki [2]: 0.8 nM
Compound: O=C(c1nn2ccccc2c1Br)N1CCN(CCc2ccc(F)cc2F)CC1

Ki [1]: 153 nM
Ki [2]: 3.6 nM
Compound: Cc1cc(C)n2ccnc2c1C(=O)N1CCN(CCc2ccc(F)cc2F)CC1

Activity [3]: < 50%
Cmax [4]: 943 ng/mL
IC50 (Cytochrome P450 3A4): > 40000 nM
Kp [6]: 1.32
Ki [1]: 524 nM
IC50 (Cytochrome P450 2C9): > 40000 nM
half-life [7]: 16 min
clearance (Rattus norvegicus [10]): 58.3 mL/min/kg
bioavailability (Rattus norvegicus [11]): 47%
concentration at 0.75 h [12]: 14.5 ng/mL
concentration at 0.75 h [15]: 11 ng/mL
Activity [16]: < 50%
IC50 (Cytochrome P450 2C19): > 40000 nM
Activity [17]: < 50%
AUClast (Rattus norvegicus [18]): 440 ng·h/mL
Activity [20]: < 50%
Activity [22]: < 50%
IC50 (Cytochrome P450 1A2): > 40000 nM
half-life [23]: 30 min
IC50 (Cytochrome P450 2D6): > 40000 nM
Vdss (Rattus norvegicus [25]): 1.7 L/kg
Activity [26]: < 50%
Activity [27]: < 50%
fraction unbound [28]: 0.326
Compound: O=C(c1cccn2ccnc12)N1CCN(CCc2ccc(F)cc2F)CC1
Activity (Rattus norvegicus [5]): Dose-dependent effect
Activity (Canis familiaris [8]): Non-toxic
Activity (Rattus norvegicus [9]): Active
Activity (Rattus norvegicus [13]): Dose-dependent effect
ED50 (Rattus norvegicus [14]): 0.3 mg/kg
Activity (Rattus norvegicus [19]): Dose-dependent effect
Activity (Canis familiaris [21]): Non-toxic
Activity (Rattus norvegicus [24]): Active

Ki [1]: 717 nM
Ki [2]: 2.6 nM
Compound: O=C(c1cc2n(n1)CCCC2)N1CCN(CCc2ccc(F)cc2F)CC1

Ki [1]: 581 nM
Ki [2]: 1.9 nM
Compound: O=C(c1nc2ccccn2c1Br)N1CCN(CCc2ccc(F)cc2F)CC1
